Measurements published in US20100048577A1, “Method for treating benign prostate hyperplasia using resveratrol” (priority 2008, published 2010).

What was measured:
[1] = test system: BPH (prostate weight/body weight indices); assay: Cure or prevention of testosterone enanthate induced BPH, fortified diets, prostate weight/body weight index at day 29 (Example 2); assay type: in vivo; settings: testosterone enanthate 25 mg i.m. days 1 and 7, diet with 1 g/kg resveratrol or trimethoxystilbene, 625 mg/kg saw palmetto, or finasteride 10 mg s.c. on 5 days
Experimental: These experiments were designed to determine whether resveratrol and trimethoxystilbene could cure or prevent BPH. Experimental animals received diets that were fortified with one of trans-resveratrol (1 g/kg), trimethoxystilbene (1 g/kg), or saw palmetto (625 mg/kg). An additional group of animals received injections of finasteride fourteen days after the start of the experiment. The animals received one, subcutaneous injection of 10 mg of finasteride in 0.1 ml dimethyl sulfoxide on 5 consecutive days. All animals, except the absolute control group, received injections of testosterone enanthate (25 mg, in 0.1 ml mineral oil). The injections were administered intramuscularly, on days 1 and 7 of the study. The absolute control group received intramuscular injections of 0.1 ml of mineral oil. At day 29, all test animals were weighed, sacrificed and their prostates were dissected free of fat and weighed. Prostate weight/body weight indices were determined for each group.

[2] = test system: induced BPH (prostate weight/body weight ratio); assay: Testosterone enanthate induced BPH in rats, prostate weight after 29 days of treatment (Example 1); assay type: in vivo; settings: Sprague Dawley rats, finasteride 10 mg s.c., resveratrol 1 g/kg in diet, saw palmetto 625 mg/kg in diet
Experimental: Sexually mature Sprague Dawley rats were given two, intramuscular injections of testosterone enanthate, at 25 mg. This induced BPH.
Animals were then divided into different groups. A first group of 5 animals received finasteride, via subcutaneous injection at a dose of 10 mg. A second group received 1 g/kg of body weight of resveratrol, mixed into their diet. A third group received saw palmetto, at 625 mg/kg, mixed into their diet. The control group received the vehicle for the active material only with no active ingredient.
Following 29 days of treatment, all animals were sacrificed. Prostates were dissected free of fat, and weighed.
The injection of the testosterone enanthate increased the prostate weight/body weight ratio by about 2-fold.

PSA = PSA expression in prostate tissue of the experimental animals by quantitative PCR (Example 4); assay type: in vivo; settings: animals treated as in Example 2
Experimental: In additional experiments following the details of example 2, supra, levels of PSA expression were tested.
Prostate tissue from the experimental animals was subjected to quantitative PCR, using well known methods. The expression of PSA was compared in untreated, and in resveratrol, and trimethoxystilbene treated animals.

[3] = test system: Normal human prostate endothelial cells (ATCC CRL-11611); assay: Gene expression of normal human prostate cells treated or not treated with resveratrol (Example 3); assay type: cell-based; settings: resveratrol 50 μM, 48 hours
Experimental: Normal human prostate endothelial cells were obtained from the ATCC (CRL-11611), and were either treated or not treated with resveratrol, at 50 μM, for 48 hours. Gene expression of the cells was compared, via standard methods.

SMILES | prostates (weight) compared with controls [1] | effect on testosterone enanthate induced BPH (increased prostate weight/body weight ratio) [2] | level of PSA expression relative to that of the controls (PSA) | share of the 376 genes known to be involved with apoptosis showing significant down regulation following treatment [3]
CC(C)(C)NC(=O)[C@H]1CC[C@H]2[C@@H]3CC[C@H]4NC(=O)C=C[C@]4(C)[C@H]3CC[C@]12C [finasteride, Finasteride, reference compound] | indistinguishable from controls | completely reversed the effect |  | 
Oc1ccc(/C=C/c2cc(O)cc(O)c2)cc1 [resveratrol, trans-3,5,4′-trihydroxystilbene] | indistinguishable from controls | reversed the induced BPH | about ⅓ | about 10%
COc1ccc(/C=C/c2cc(OC)cc(OC)c2)cc1 [trimethoxystilbene] | indistinguishable from controls |  | about ⅓ | 
